Results on three compounds are retold here after patent publication US20110112056A1, “Use of Carbon-2-Modified-Vitamin D Analogs to Induce the Formation of New Bone” (WISCONSIN ALUMNI RESEARCH FOUNDATION, priority 2002, published 2011).

“Also recorded” adds a separate entry of the source. Read-outs that look alike come from different tables or passages of the source.

The subject of assay [1] is human osteoblast cultures. Description: Bone nodule formation in vitro in human osteoblast cultures (Von Kossa stain). Conditions: for formation of mineralized bone by osteoblast cultures (Von Kossa stain, FIG. 2): different concentrations (10^−8 to 10^−12 molar). Type of assay: cell-based. The source says:
Human bone samples discarded after surgical procedures from patients undergoing hip/knee replacement surgeries are obtained under an approved IRB protocol (Protocol #2001-055) and processed as described below. These bone pieces are otherwise routinely discarded as waste material during surgery.
The bone pieces are thoroughly washed and cleaned under sterile conditions using phosphate-buffered saline (PBS). These pieces are then cut to obtain smaller pieces (1-2 mm^3) and subjected to enzymatic digestion process to isolate osteoblasts as described below.
Osteoblastic cells are obtained from the bone pieces by collagenase digestion. Briefly, the bone samples are washed twice in PBS and dissected in about 1 mm^3 size fragments which are then sequentially digested in trypsin (1 mg/mL) for ten minutes, followed by dispase (2 mg/mL) for twenty minutes, and bacterial collagenase [Collagenase A] (3 mg/mL) twice for thirty minutes in PBS at 37° C. in a water bath. Cells released by collagenase digestion are then washed, counted and grown to sub-confluence in 25 cm^2 cell culture flasks in 1:1 Ham's F12/Dulbecco's modification of Eagle's medium (DMEM) supplemented with 10% fetal bovine serum. Cells are cultured at 37° C. in a humidified atmosphere of 5% CO2/95% air. Medium changes are made every 2-3 days and cells are cultured until they are 80% confluent. Cells are then trypsinized, washed and frozen from early passages for evaluation using techniques as described below.
In order to evaluate the ability of osteoblasts to form bone nodules in vitro, cells are cultured in 6 well plates at 1-3×10^5 cells/well. Cells are cultured in the presence of either 1,25-(OH)2D3 or vitamin D analogs at various doses for 7 days. Complete medium changes are carried out twice during the 7-day period and the medium is supplemented with fresh compounds (either 1,25-(OH)2D3 or 2-methylene-19-nor-(20S)-1α,25-dihydroxyvitamin D3—2MD) during each medium change. At days 10 and 13, complete medium changes are carried out and the compounds are replaced by treatment with ascorbic acid (50 μg/ml) and β-glycerol phosphate (10 mM). A third dose of ascorbic acid and β-glycerol phosphate is added to the cultures on day 15 if needed. Following the culture period, cells are stained using the Von Kossa technique. Briefly, cells are stained with 5% silver nitrate for 30 minutes in the dark, rinsed with distilled water, reduced with sodium carbonate/formaldehyde solution for 2 minutes and washed under tap water for 10 minutes. The cells are then stained with methyl green pyronin for 20 minutes, washed with water followed by two washes of absolute alcohol. […] Bone nodule formation in vitro can be assessed quantitatively by various published procedures.

Another assay concerns post-menopausal women. The conditions noted are these: cited from earlier work.
The subject of another assay is ovariectomized rats. The conditions noted are these: cited from earlier work; for bone mass: ovariectomized animal; for bone strength: ovariectomized rats.

Turning to `C=C1/C(=C\C=C2/CCC[C@]3(C)[C@@H]([C@H](C)CCCC(C)(C)O)CC[C@@H]23)C[C@@H](O)C[C@@H]1O` [1,25-(OH)2D3, 1α,25-dihydroxyvitamin D3], the “change in osteoblast cultures (photographs, FIG. 1)” value in assay [1] (10^−8 molar, after 14 days of incubation) is reported as “very little change”. In addition, the “formation of mineralized bone by osteoblast cultures (Von Kossa stain, FIG. 2)” value in assay [1] is given as “does not produce this effect; also recorded: minimum effect”. Besides, in the assay with post-menopausal women, the bone mass entry is “will not appreciably increase the bone mass” and the fracture rate result is on record as “will decrease the fracture rate”.

With `C=C1[C@H](O)CC(=C/C=C2\CCC[C@]3(C)[C@@H]([C@@H](C)CCCC(C)(C)O)CC[C@@H]23)C[C@H]1O` [2MD, 2-methylene-19-nor-(20S)-1α,25-dihydroxyvitamin D3], the “degree of new bone formation” value in assay [1] (10^−12 molar) is recorded as “saturating degree of new bone formation”. Moreover, the “formation of mineralized bone by osteoblast cultures (Von Kossa stain, FIG. 2)” value in assay [1] is “unique and strong action”. Further, the bone mass result in the assay on ovariectomized rats is on record as “markedly stimulate bone mass accumulation”; in the assay on ovariectomized rats (listed as 2-methylene-19-nor-20S-1,25-(OH)2D3) it was “increase bone mass”. Moreover, the bone strength result in the assay with ovariectomized rats is “increase bone strength”.

Turning to `CC1C(O)CC(=CC=C2CCC[C@]3(C)[C@@H]([C@@H](C)CCCC(C)(C)O)CC[C@@H]23)CC1O` (stereo partly drawn) [2α-methyl-19-nor-20S-1,25-(OH)2D3, 2α-methyl-19-nor-20(S)-1α,25-dihydroxyvitamin D3], in the assay on ovariectomized rats, the bone mass result was “increase bone mass” and the bone strength entry is reported as “increase bone strength”.
